Molecules are shown by their SMILES. Like-named read-outs stand apart in the source and are kept apart here. A value given as a limit tells only on which side of the number the result lay.

One data set deals with N. fowleri cysts. Kind of data set: Excystation assay, N. fowleri cysts. Format: cell-based, Naegleria fowleri. The conditions noted are these: 100 μM, after negating effects of solvent alone; for inhibition at 100 µM: Naegleria fowleri, read-out: Inhibition of excystation of N. fowleri. On the procedure:
(§1) Briefly, 5 × 10^5 amoebae cysts (N. fowleri and B. mandrillaris cells) were incubated with 100 μM drugs and/or solvent in 24-well plates containing RPMI-1640 on HeLa monolayers at 37 °C and 5% CO2 until around 75% of the cysts in RPMI-1640 alone have excysted. The RPMI-1640 alone was used as a negative control while DMSO and ethanol were used as a solvent control and 100 μM miltefosine was used as positive control. Live trophozoites (amoebae that excysted) were then quantified by counting live (unstained) cells, after addition of 0.1% Trypan blue to each well, using a haemocytometer. Percentage inhibition is defined as: [(Number of trophozoites in untreated well − Number of trophozoites in treated well)/Number of trophozoites in untreated well)] × 100. The data are representative of the mean ± standard error of several independent experiments performed in duplicate.
(§2) Figure 3 (A) Inhibition of excystation of N. fowleri cysts. N. fowleri cysts were incubated with 100 μM drugs and/or solvent in 24-well plates containing RPMI-1640 on HeLa monolayers for 24 h and number of viable trophozoites were then enumerated. Percentage inhibition of excystation was calculated by: [((RPMI trophozoite cell count − trophozoite cell count for sample)/RPMI trophozoite cell count) × 100)]. The activities of solvents alone were negated from the activities of the compounds. The data is presented as the mean ± standard error (*: p ˂ 0.05, **: p < 0.01, ***: p < 0.001 using student t-test; two tailed distribution). (B) Inhibition of excystation of B. mandrillaris cysts. B. mandrillaris cysts were incubated with 100 μM drugs and/or solvent in 24-well plates containing RPMI-1640 on HeLa monolayers for 24 h and number of viable trophozoites were then enumerated. Percentage inhibition of excystation was calculated by: [((RPMI trophozoite cell count − trophozoite cell count for sample)/RPMI trophozoite cell count) × 100)]. The activities of solvents alone were negated from the activities of the compounds. The data is presented as the mean ± standard error (*: p ˂ 0.05, **: p < 0.01, ***: p < 0.001 using student t-test; two tailed distribution).

In a further data set the test system is HaCaT cells. Format: cell-based, human. To be noted: LDH release, 24 h, concentration not given. On the procedure:
Cytotoxic effects of the drugs were determined as previously described^21. Briefly, the cytotoxic activity of the drugs was investigated against HaCaT cells. […] The LDH assay protocol is based on an enzymatic reaction, i.e., LDH released from the cell oxidizes lactate to generate NADH, which then reacts with water-soluble tetrazolium salt (WST) to generate a yellow color. The intensity of the generated color correlates directly with the number of lyzed cells. Following this, 1% Triton X-100 was added to the positive control well and incubated the plate for 60 min at 37 °C. For negative control, human cells were grown in RPMI alone well. Then, an equal amount of cells supernatant (comprising LDH enzyme) from each well was combined with equal amount of LDH kit reagents and cytotoxicity was determined in proportion to LDH released from human cells using a spectrophotometer at 490 nm. The percentage LDH released was determined as follows: [(Absorbance of sample − Absorbance of control)/(Absorbance for total LDH release − Absorbance of control)] × 100 = percentage cytotoxicity.
Figure 4 Cytotoxic effects of compounds against human cells are depicted. Various concentrations of compounds were incubated with human cells for 24 h at 37 °C and 5% CO2. RPMI alone was used as negative control and triton X-100 was used as positive control. Data are presented as the mean ± standard error of 2 experiments conducted in duplicates.
For orientation: LDH in the medium is a marker of cell lysis.

Data set [1] concerns B. mandrillaris trophozoites. Briefly: Amoebicidal assay against B. mandrillaris trophozoites (Trypan blue). The format is cell-based, Balamuthia mandrillaris. To be noted: for EC50: Balamuthia mandrillaris, read-out: Half maximal effective concentration (EC50), B. mandrillaris; for Amoebicidal activity against B. mandrillaris: summary in discussion, concentration not given. On the procedure:
(§3) Amoebicidal assays were performed as previously described. Briefly, 5 × 10^5 amoebae (N. fowleri and B. mandrillaris cells) were incubated with drugs and/or solvents in 24-well plates in RPMI-1640. Amoebae were incubated with RPMI-1640 for negative controls while DMSO and ethanol were used as solvent control. For the positive control, the anti-amoebic drug, 100 μM miltefosine was used. Plates were incubated at 37 °C and 5% CO2 for 24 h. Next, 0.1% Trypan blue was added to each well. […] The number of live cells (i.e., unstained) was counted using a haemocytometer to determine amoebicidal effects of various compounds. The data are representative of the mean ± standard error of several experiments performed in duplicate.
Figure 2 The amoebicidal activities of compounds against B. mandrillaris trophozoites. B. mandrillaris trophozoites were incubated with various concentrations of compounds for 24 h and trophozoites viability was determined using Trypan blue. Percentage amoebicidal activity was calculated by: [((RPMI cell count − cell count for sample)/RPMI cell count) × 100)]. The activities of solvents alone were negated from the activities of the compounds. The data is presented as the mean ± standard error (*: p < 0.05, **: p < 0.01, ***: p < 0.001 using student t-test; two tailed distribution).

A further data set concerns N. fowleri trophozoites. Kind of data set: Amoebicidal assay against N. fowleri trophozoites (Trypan blue). Format: cell-based, Naegleria fowleri. The conditions noted are these: for minimal effective concentration / EC50: Naegleria fowleri; for minimal effective concentration: compared to solvent control, p < 0.05, 24 h, read-out: Lowest concentration showing significant amoebicidal activity against N. fowleri; for EC50: 24 h, read-out: Half maximal effective concentration (EC50), N. fowleri; for Amoebicidal activity against N. fowleri: summary in discussion, concentration not given. On the procedure: as §3
Figure 1 The amoebicidal activities of compounds against N. fowleri trophozoites. N. fowleri trophozoites were incubated with various concentrations of compounds for 24 h and trophozoites viability was determined using Trypan blue. Percentage amoebicidal activity was calculated by: [((RPMI cell count − cell count for sample)/RPMI cell count) × 100)]. The activities of solvents alone were negated from the activities of the compounds. The data is presented as the mean ± standard error (*: p < 0.05, **: p < 0.01, ***: p < 0.001 using student t-test; two tailed distribution).

The test system of another data set is B. mandrillaris cysts. Briefly: Excystation assay, B. mandrillaris cysts. Format: cell-based. The conditions noted are these: Balamuthia mandrillaris; 100 μM, after negating effects of solvent alone; read-out: Inhibition of excystation of B. mandrillaris. As for the experimental part: as §1, §2
Details of data set [2]: method as in PMID 29206032, PMID 32548431. To be noted: ref [24],[25],[26]; cited from earlier work.
[3] abbreviates: trophozoites, 24 h, Trypan blue.

By inhibition is commonly meant the drop in the measured response relative to a control, in per cent. For `CCC1=C(C)CN(C(=O)NCCc2ccc(S(=O)(=O)NC(=O)NC3CCC(C)CC3)cc2)C1=O` (stereo not shown) [Glimepiride, 4-ethyl-3-methyl-N-[2-[4-[(4-methylcyclohexyl)carbamoylsulfamoyl]phenyl]ethyl]-5-oxo-2H-pyrrole-1-carboxamide], the inhibition at 100 µM with N. fowleri cysts was 53%; with B. mandrillaris cysts, less than 10%. For the same molecule, the “Cytotoxicity against HaCaT cells” value in the data set on HaCaT cells was 6%. For the same molecule, the EC50 in data set [1] (setting [3]) worked out at 63.6 µM; in the data set with N. fowleri trophozoites (trophozoites, Trypan blue) it was 5.2 µM. The “Amoebicidal activity against B. mandrillaris” value in data set [1] was determined as 54%. Besides, in the data set on N. fowleri trophozoites, the minimal effective concentration turned out to be 12.5 µM. Moreover, the “Amoebicidal activity against N. fowleri” value in the data set on N. fowleri trophozoites is reported as 92%. In addition, in data set [2], the “BBB Permeability” value was “Positive”.
`OC1C(O)C(O)C(O)C(O)C1O` (stereo not shown) [Inositol, cyclohexane-1,2,3,4,5,6-hexol]: the inhibition at 100 µM in the data set on N. fowleri cysts worked out at 12%. Besides, the “Cytotoxicity against HaCaT cells” value in the data set with HaCaT cells was 4%. The EC50 in data set [1] (setting [3]) worked out at 124 µM; in the data set on N. fowleri trophozoites (trophozoites, Trypan blue) it was 48.9 µM. Moreover, the “Concentration showing significant amoebicidal activity against B. mandrillaris” value in data set [1] (compared to solvent control, 24 h) is reported as 6.25 µM. The minimal effective concentration in the data set with N. fowleri trophozoites was not below 6.25 µM. In data set [2], the “BBB Permeability” value is given as “Present in brain”.
`CC(C)C1CCC(C(=O)N[C@H](Cc2ccccc2)C(=O)O)CC1` (stereo partly drawn) [Nateglinide, (2R)-3-phenyl-2-[(4-propan-2-ylcyclohexanecarbonyl)amino]propanoic acid]: the inhibition at 100 µM was found to be 42% with N. fowleri cysts and 57% with B. mandrillaris cysts. Besides, in the data set with HaCaT cells, the “Cytotoxicity against HaCaT cells” value came out at 2%. In addition, the EC50 turned out to be 136 µM in data set [1] (setting [3]) and 44.4 µM with N. fowleri trophozoites (trophozoites, Trypan blue). Further, in data set [1], the “Amoebicidal activity against B. mandrillaris” value is recorded as 39%. The minimal effective concentration in the data set on N. fowleri trophozoites is not below 6.25 µM. Moreover, the “Amoebicidal activity against N. fowleri” value in the data set with N. fowleri trophozoites amounted to 64%. Also, the “BBB Permeability” value in data set [2] is “Positive”.
Take `CCOc1cc(CC(=O)N[C@@H](CC(C)C)c2ccccc2N2CCCCC2)ccc1C(=O)O` [Repaglinide, 2-ethoxy-4-[2-[[(1S)-3-methyl-1-(2-piperidin-1-ylphenyl)butyl]amino]-2-oxoethyl]benzoic acid]: the values for the inhibition at 100 µM in the data set with N. fowleri cysts and in the data set with B. mandrillaris cysts were 49% and less than 10%, respectively. The “Cytotoxicity against HaCaT cells” value in the data set with HaCaT cells is listed as “did not exhibit any cytotoxicity”. Besides, the EC50 in data set [1] (setting [3]) came to 31.8 µM; in the data set with N. fowleri trophozoites (trophozoites, Trypan blue) it was 14.3 µM. Besides, the minimal effective concentration with N. fowleri trophozoites stood at 50 µM. For the same molecule, in data set [2], the “BBB Permeability” value is recorded as “Negative”.
Take `C[C@H]1O[C@H](O[C@H]2[C@H](O)[C@@H](O)[C@@H](O[C@H]3[C@H](O)[C@@H](O)C(O)O[C@@H]3CO)O[C@@H]2CO)[C@H](O)[C@@H](O)[C@@H]1N[C@H]1C=C(CO)[C@@H](O)[C@H](O)[C@H]1O` (stereo partly drawn) [Acarbose, (3R,4R,5S,6R)-5-[(2R,3R,4R,5S,6R)-5-[(2R,3R,4S,5S,6R)-3,4-dihydroxy-6-methyl-5-[[(1S,4R,5S,6S)-4,5,6-trihydroxy-3-(hydroxymethyl)cyclohex-2-en-1-yl]amino]oxan-2-yl]oxy-3,4-dihydroxy-6-(hydroxymethyl)oxan-2-yl]oxy-6-(hydroxymethyl)oxane-2,3,4-triol]: in the data set on N. fowleri cysts, the inhibition at 100 µM is 17%. The EC50 in data set [1] (24 h) was found to be 80.8 µM. Also, the “Amoebicidal activity against B. mandrillaris” value in data set [1] is 60%. Moreover, in the data set with N. fowleri trophozoites, the EC50 was 3.6 µM, the minimal effective concentration is not below 25 µM and the “Amoebicidal activity against N. fowleri” value stood at 74%. In addition, the inhibition at 100 µM in the data set with B. mandrillaris cysts was less than 10%. For the same molecule, the “BBB Permeability” value in data set [2] was “Negative”.
For `N#C[C@@H]1CCCN1C(=O)CNC12CC3CC(CC(O)(C3)C1)C2` [Vildagliptin, (2S)-1-[2-[(3-hydroxy-1-adamantyl)amino]acetyl]pyrrolidine-2-carbonitrile], the “Inhibition of excystation of N. fowleri” value in the data set on N. fowleri cysts is “did not inhibit excystation”. Besides, the “Cytotoxicity against HaCaT cells” value with HaCaT cells was “did not exhibit any cytotoxicity”. Also, the minimal effective concentration with N. fowleri trophozoites was not below 3.13 µM. In the data set with N. fowleri trophozoites (trophozoites, Trypan blue), the EC50 stood at 100 µM. In the data set with B. mandrillaris cysts, the inhibition at 100 µM came to 14%. In addition, the “BBB Permeability” value in data set [2] is given as “Positive”.

(Values after PMC9220410, “Antiamoebic Properties of Laboratory and Clinically Used Drugs against Naegleria fowleri and Balamuthia mandrillaris” (Antibiotics, 2022).)
